What all share (format): cell-based
Assay [1] deals with T1, D2 DAR (Homo sapiens (Human), UniProt P14416). To be noted: β-arrestin recruitment, antagonist.
The target of assay [2] is D3 DAR (Homo sapiens (Human), UniProt P35462). The note with it: β-arrestin recruitment, agonist; for D3 Emax: 'curve' = wrapped cell 'curve interrupted'. Background: Recruitment of arrestin is a read-out of receptor activation apart from second messengers.
For assay [3], the target named is T1, D2 DAR. The note with it: β-arrestin recruitment, agonist; for D2 Emax: 'curve' = wrapped cell 'curve interrupted'.

T1 sequence (P14416 whole entry): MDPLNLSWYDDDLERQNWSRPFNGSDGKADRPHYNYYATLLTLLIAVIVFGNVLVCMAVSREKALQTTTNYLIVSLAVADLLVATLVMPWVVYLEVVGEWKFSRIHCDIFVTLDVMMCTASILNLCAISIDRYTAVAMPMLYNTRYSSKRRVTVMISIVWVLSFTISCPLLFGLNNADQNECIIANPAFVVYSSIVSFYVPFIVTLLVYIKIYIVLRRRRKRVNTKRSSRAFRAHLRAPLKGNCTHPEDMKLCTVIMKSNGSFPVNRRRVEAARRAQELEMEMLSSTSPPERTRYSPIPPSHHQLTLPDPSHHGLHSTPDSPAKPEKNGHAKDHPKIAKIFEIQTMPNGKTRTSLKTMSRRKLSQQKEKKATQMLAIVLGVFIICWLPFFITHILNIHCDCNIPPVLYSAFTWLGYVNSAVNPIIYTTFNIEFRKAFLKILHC
Sequence of D3 DAR (P35462 whole entry): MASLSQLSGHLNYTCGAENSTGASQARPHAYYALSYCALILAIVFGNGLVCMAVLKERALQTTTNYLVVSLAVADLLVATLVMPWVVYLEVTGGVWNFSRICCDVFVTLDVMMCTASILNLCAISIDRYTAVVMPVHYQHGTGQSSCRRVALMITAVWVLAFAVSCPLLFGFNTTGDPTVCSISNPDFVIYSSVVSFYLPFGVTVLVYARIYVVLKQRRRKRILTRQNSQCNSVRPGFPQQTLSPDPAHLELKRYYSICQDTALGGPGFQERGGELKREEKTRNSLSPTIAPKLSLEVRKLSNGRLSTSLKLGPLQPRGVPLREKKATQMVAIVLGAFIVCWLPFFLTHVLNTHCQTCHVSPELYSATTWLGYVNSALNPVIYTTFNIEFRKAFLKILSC

On to `COc1cccc(OCCN2CCN(C(=O)c3cc4cccnc4[nH]3)CC2)c1` [Compound 68], for which the “D2 IC50” value in assay [1] was “None”. For the same compound, the EC50 in assay [2] came to 50 nM; in assay [3] it was 128 nM.

For `COc1ccc(OCCN2CCN(C(=O)c3cc4ccccc4[nH]3)CC2)cc1OC` [Compound 104], the IC50 in assay [1] is > 50000 nM. This compound came in with a half-maximal effective concentration (EC50) in assay [2] of 710 nM. For the same compound, in assay [3], the “D2 EC50” value is on record as “none” and the “D2 Emax” value is on record as “none”.

With `COc1ccc(OCCC2CCN(C(=O)c3cc4ccccc4[nH]3)CC2)cc1` [Compound 124], the “D2 IC50” value in assay [1] is on record as “none”. In addition, in assay [2], the “D3 EC50” value is on record as “none” and the “D3 Emax” value is recorded as “none”. Also, in assay [3], the “D2 EC50” value was “none” and the “D2 Emax” value is on record as “none”.

Consider `CC(C)(C)c1ccc(OCCN2CCN(C(=O)c3cc4ccccc4[nH]3)CC2)cc1` [Compound 99], for which the IC50 in assay [1] is > 100000 nM. Moreover, in assay [2], the “D3 EC50” value is “none” and the “D3 Emax” value is on record as “none”. For the same compound, in assay [3], the “D2 EC50” value was “none” and the “D2 Emax” value is “none”.

Regarding `COc1ccc(OCCN2CCN(C(=O)c3cc4ccncc4[nH]3)CC2)cc1` [Compound 57], the IC50 in assay [1] was > 100000 nM. The half-maximal effective concentration (EC50) in assay [2] is 810 nM; in assay [3] it was 7800 nM.

As a reminder, the EC50 is the midpoint of the concentration-response curve. Read a low EC50 as greater potency. For orientation: IC50 means the concentration at which inhibition is half-maximal. A higher IC50 goes with a need for much substance.

(Values after US11634404B2 (priority 2016, dated 2023).)
